The source of these data is patent US9930893B2, “Inhibitors of DXP synthase and methods of use thereof” (The Johns Hopkins University, priority 2014, dated 2018).

For experiment [1], the target named is Porcine pyruvate dehydrogenase (PDH E1 subunit). The note with it: Table 5, value marked with reference superscript; cited from earlier work.
Experiment [2] has as its target T1, Porcine pyruvate dehydrogenase (PDH E1 subunit) (Sus scrofa, UniProt P29804).
T1 construct: Ki^PDH; μM); Ki^PDH
T1 sequence (P29804 1-390): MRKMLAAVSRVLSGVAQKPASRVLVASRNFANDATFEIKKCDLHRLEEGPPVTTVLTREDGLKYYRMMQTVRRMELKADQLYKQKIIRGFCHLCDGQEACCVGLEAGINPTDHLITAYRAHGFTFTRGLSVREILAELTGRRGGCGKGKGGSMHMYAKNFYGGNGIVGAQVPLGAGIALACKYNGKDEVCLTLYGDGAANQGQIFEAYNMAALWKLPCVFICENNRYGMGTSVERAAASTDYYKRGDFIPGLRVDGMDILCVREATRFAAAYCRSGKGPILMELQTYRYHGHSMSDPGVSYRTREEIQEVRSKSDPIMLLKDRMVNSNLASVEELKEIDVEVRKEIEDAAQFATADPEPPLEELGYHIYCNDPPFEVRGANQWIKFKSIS
The settings on record: Table 5, value marked with reference superscript (previously reported); cited from earlier work.

Experiment [3] has as its target T2, E. coli DXP synthase (Escherichia coli, UniProt P77488).
T2 construct: made in house
The note with it: Table 5, value marked with reference superscript (previously reported); read-out: Ki^DXPS; cited from earlier work.

Experiment [4] concerns wild-type K-12 E. coli (ATCC: MG1655). The experiment is described as follows: Antimicrobial activity against E. coli K-12 grown in CAMHB. Type of experiment: cell-based. Here is the method:
FIG. 7A and FIG. 7B are charts showing representative growth curves are shown for BAP (FIG. 7A) and BnAP (FIG. 7B). Alkylacetylphosphonates exert dose-dependent delay in E. coli K-12 (MG 1655) growth in CAMHB. Fractional growth (measured at 16 h, blue arrow) was determined relative to the no drug control. Standardized cell cultures were exposed to increasing concentrations of acetylphosphonate, and growth was determined by measuring the OD600 for a period of 16 hours. Acetylphosphonate concentration was varied from 0-5 mM: No drug (light blue), 0.08 mM (orange), 0.16 mM (gray), 0.31 mM (yellow), 0.63 mM (blue), 1.25 mM (green), 2.5 mM (dark blue) and 5.0 mM (brown).
Thus, BnAP, PentAP, HexAP and OctAP, also shown to inhibit DXP synthase, were evaluated for antimicrobial activity against wild-type K-12 E. coli (ATCC: MG1655) grown in rich medium (CAMHB).

A further experiment relates to E. coli K-12 (BW25113). The experiment is described as follows: Antimicrobial activity against E. coli K-12 grown in M9 minimal medium. The format is cell-based. The settings on record: M9 minimal medium; preliminary. The text has this:
The product of DXP synthase, DXP, lies at a metabolic branchpoint. DXP serves as precursor not only for essential isoprenoids, but also is essential to central metabolism as a precursor to both thiamin diphosphate and pyridoxal phosphate. Thus, evaluation of antimicrobial activity of DXP synthase inhibitors in the standard, rich growth medium (CAMHB) which contains rescuing metabolites, likely underestimates the antimicrobial activities of these agents. Standard in vitro culture conditions may have poor predictive value for these agents in vivo; access to most nutrients is thought to be more difficult from the host than in nutrient rich media.

For experiment [5], the target named is T2, E. coli DXP synthase. Kind of experiment: biochemical. The note with it: pyruvate 95 μM, D-GAP 56 μM; error 95% Confidence Interval; read-out: IC50 (DXP synthase).

In brackets after ≈: the same amount, converted by molar mass.

T2 sequence (P77488 whole entry): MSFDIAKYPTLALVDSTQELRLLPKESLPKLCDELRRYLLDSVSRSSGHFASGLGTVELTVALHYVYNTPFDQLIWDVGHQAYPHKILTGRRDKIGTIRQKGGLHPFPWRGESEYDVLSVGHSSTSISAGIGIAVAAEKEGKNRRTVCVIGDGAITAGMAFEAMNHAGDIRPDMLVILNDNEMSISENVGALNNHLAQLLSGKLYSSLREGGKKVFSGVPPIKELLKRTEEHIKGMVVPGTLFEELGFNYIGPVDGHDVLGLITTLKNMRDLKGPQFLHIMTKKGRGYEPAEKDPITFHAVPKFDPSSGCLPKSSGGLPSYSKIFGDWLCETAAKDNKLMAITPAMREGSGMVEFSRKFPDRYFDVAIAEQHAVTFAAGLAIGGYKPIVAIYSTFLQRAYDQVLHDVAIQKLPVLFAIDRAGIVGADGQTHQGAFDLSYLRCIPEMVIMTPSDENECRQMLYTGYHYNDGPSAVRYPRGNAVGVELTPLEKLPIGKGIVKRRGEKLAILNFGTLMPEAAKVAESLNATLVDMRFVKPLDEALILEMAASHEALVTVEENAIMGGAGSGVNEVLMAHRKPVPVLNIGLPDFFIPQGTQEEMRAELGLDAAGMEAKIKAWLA

The term Ki denotes a measure of affinity in units of concentration, obtained from inhibition or displacement. What is called MIC is the smallest concentration in the dilution series that meets the test's criterion for growth inhibition. Read a high MIC as a less susceptible organism. The IC50 is the midpoint of a concentration-inhibition curve. Regarding `CCCCOP(=O)(O)C(C)=O` [BAP, butylacetylphosphonate, reference compound], the “Ki^PDH/Ki^DXPS” value in experiment [1] is 60. The Ki in experiment [2] is 335 ± 8 µM; at E. coli DXP synthase [3] it was 5.6 ± 0.8 µM. The “antimicrobial effects against E. coli (MG1655)” value in experiment [4] (FIG. 10, in words) is on record as “dose-dependent inhibition”. For the same molecule, the “minimum inhibitory concentration (MIC90)” value in experiment [4] (rich medium (CAMHB), 16 h) came to 2500 µM (≈ 450 µg/mL). Besides, the MIC in the experiment on E. coli K-12 (BW25113) is 3100 µM (≈ 558 µg/mL). For the same molecule, the IC50 on E. coli DXP synthase [5] worked out at 24 ± 4 µM.
